Tested on: subjects with moderate-to-severe plaque psoriasis
Test: PASI response, Example 1 16-week dose-ranging study
Format: in vivo, human
Conditions: for Subjects achieving PASI 75: Week 4
Procedure: The Psoriasis Area and Severity Index (PASI) is a system used for assessing and grading the severity of psoriatic lesions and their response to therapy. In the PASI system, the body is divided into four regions: the head, trunk, upper extremities, and lower extremities. Each of these areas is assessed and scored separately for erythema, induration, and scaling, which are each rated on a scale of 0 to 4 and extent of involvement on a scale of 0 to 6. The PASI produces a numeric score (a “PASI score”) that can range from 0 to 72. A higher score indicates more severe disease.
This was a randomized, double-blind, placebo-controlled, dose-ranging, parallel group, multicenter, interventional study in subjects with moderate-to-severe plaque psoriasis. A target of 240 subjects were enrolled in this study with 40 subjects planned per intervention group.
Clinician-reported outcomes including Psoriasis Area and Severity Index (PASI), Body Surface Area (BSA), Investigator's Global Assessment (IGA), Nail Psoriasis Area and Severity Index (NAPSI), Fingernail Physician's Global Assessment (f-PGA), Static Physician's Global Assessment of Genitalia (s-PGA-G), Physician's Global Assessment of Hands and/or Feet (hf-PGA), and Scalp Specific Investigator Global Assessment (ss-IGA) were obtained at Week 0, 8, and 16. PASI and IGA were also obtained at Weeks 1, 2, 4, and 12, and at Week 20, four weeks after the administration of the tablets has stopped.
The primary efficacy endpoint was the proportion of participants achieving a PASI 75 response at Week 16, defined as at least a 75% reduction from baseline in PASI total score.
For the primary analysis, composite strategy (non-responder imputation) was applied to address intercurrent event #1 (Discontinuation of study intervention due to lack of efficacy or due to an AE of worsening of psoriasis) and #2 (initiation of a protocol-prohibited medication or therapy that could improve psoriasis); and treatment policy strategy (observed data) was applied to intercurrent event #3 (Discontinuation of study intervention due to other reasons). Participants with missing data after application of ICEs are also considered as non-responders.
In addition to the response analysis, pairwise comparisons of each treatment group versus the placebo group were performed for the primary endpoint of PASI 75 at Week 16. Pairwise comparisons were not adjusted for multiplicity. The Cochran-Mantel-Haenszel chi-square statistic stratified by baseline weight category (≤90 kg, >90 kg) at a 2-sided significance level of 0.05 was used (Table 2).

[1] = 25 mg QD, Week 16, trough plasma conc ≥Q3
[2] = 50 mg QD, Week 16, peak plasma conc. <Q1, N=2
[3] = 50 mg QD, Week 16, peak plasma conc. Q1 to <Q2, N=2
[4] = 50 mg QD, Week 16, peak plasma conc. Q2 to <Q3, N=2
[5] = 50 mg QD, Week 16, peak plasma conc. ≥Q3, N=2
[6] = 50 mg QD, Week 16, trough plasma conc <Q1
[7] = 50 mg QD, Week 16, trough plasma conc Q1 to <Q2
[8] = 50 mg QD, Week 16, trough plasma conc Q2 to <Q3
[9] = 50 mg QD, Week 16, trough plasma conc ≥Q3
[10] = 100 mg BID, Week 16, peak plasma conc. <Q1, N=2
[11] = 100 mg BID, Week 16, peak plasma conc. Q1 to <Q2, N=3
[12] = 100 mg BID, Week 16, peak plasma conc. Q2 to <Q3, N=2
[13] = 100 mg BID, Week 16, peak plasma conc. ≥Q3, N=3
[14] = 100 mg BID, Week 16, trough plasma conc <Q1

How did the “PASI 100% Improvement, subjects” value [1] turn out when `CC(=O)NCCCC[C@@H]1NC(=O)[C@H](Cc2c[nH]c3c(C)cccc23)NC(=O)[C@H]([C@@H](C)O)NC(=O)[C@H](CC(N)=O)NC(=O)[C@@H](NC(C)=O)C(C)(C)SSC(C)(C)[C@@H](C(=O)N[C@@H](Cc2ccc(OCCN)cc2)C(=O)N[C@@H](Cc2ccc3ccccc3c2)C(=O)NC2(C(=O)N[C@@H](CCC(=O)O)C(=O)N[C@@H](CC(N)=O)C(=O)N[C@@H](Cc3cccnc3)C(=O)N(C)CC(N)=O)CCOCC2)NC1=O` [IL-23 receptor antagonist peptide, Ac-[Pen]*-N-T-[W(7-Me)]-[Lys(Ac)]-[Pen]*-Phe[4-(2-aminoethoxy)]-[2-Nal]-[THP]-E-N-[3-Pal]-Sarc-NH2 (*[Pen]-[Pen]* formdisulfidebond)] was run?
The value was 1 (16.7%).

And the “PASI ≥75% Improvement, subjects” value [1]?
Its value is 3 (50.0%).

And the “PASI ≥90% Improvement, subjects” value [1]?
Its value is 1 (16.7%).

And the “Subjects achieving PASI 75” value (50 mg QD)?
Its value is 16.3%.

What about the “PASI 75 treatment difference vs placebo” value (50 mg QD, Week 16) of the same molecule?
Its value is 48.8%.

What about the “PASI 90 treatment difference vs placebo” value (50 mg QD, Week 16) of the same molecule?
The value was 48.8% (33.3%,.

And the “PASI 100 treatment difference vs placebo” value (50 mg QD, Week 16)?
The value was 25.6% (12.7%,.

And the “Subjects achieving PASI 90” value (50 mg QD, Week 16)?
Its value is 22 (51.2%).

What about the “Subjects achieving PASI 100” value (50 mg QD, Week 16) of the same molecule?
The value was 11 (25.6%).

What about the “PASI 75, %” value (50 mg QD, Week 16, N=43) of the same molecule?
The value was 58.1%.

What about the “PASI 90, %” value (50 mg QD, Week 16, N=43) of the same molecule?
Its value is 51.2%.

And the “PASI 100, %” value (50 mg QD, Week 16, N=43)?
Its value is 25.6%.

What about the “PASI 100% Improvement, n subjects” value [2] of the same molecule?
The value was 0.

What about the “PASI ≥75% Improvement, % subjects” value [2] of the same molecule?
Its value is “(50.0%)”.

And the “PASI ≥75% Improvement, n subjects” value [2]?
The value was 1.

What about the “PASI ≥90% Improvement, n subjects” value [2] of the same molecule?
The value was 0.

What about the “PASI 100% Improvement, % subjects” value [3] of the same molecule?
The value was “(50.0%)”.

What about the “PASI 100% Improvement, n subjects” value [3] of the same molecule?
The value was 1.

And the “PASI ≥75% Improvement, % subjects” value [3]?
The value was “(100.0%)”.

And the “PASI ≥75% Improvement, n subjects” value [3]?
The value was 2.

What about the “PASI ≥90% Improvement, % subjects” value [3] of the same molecule?
Its value is “(100.0%)”.

What about the “PASI ≥90% Improvement, n subjects” value [3] of the same molecule?
Its value is 2.

And the “PASI 100% Improvement, n subjects” value [4]?
Its value is 0.

And the “PASI ≥75% Improvement, % subjects” value [4]?
Its value is “(50.0%)”.

And the “PASI ≥75% Improvement, n subjects” value [4]?
The value was 1.

And the “PASI ≥90% Improvement, % subjects” value [4]?
Its value is “(50.0%)”.

What about the “PASI ≥90% Improvement, n subjects” value [4] of the same molecule?
The value was 1.

And the “PASI 100% Improvement, n subjects” value [5]?
Its value is 0.

And the “PASI ≥75% Improvement, % subjects” value [5]?
The value was “(100.0%)”.

And the “PASI ≥75% Improvement, n subjects” value [5]?
Its value is 2.

What about the “PASI ≥90% Improvement, % subjects” value [5] of the same molecule?
The value was “(100.0%)”.

What about the “PASI ≥90% Improvement, n subjects” value [5] of the same molecule?
Its value is 2.

What about the “PASI 100% Improvement, subjects” value [6] of the same molecule?
Its value is 1 (20.0%).

And the “PASI ≥75% Improvement, subjects” value [6]?
The value was 2 (40.0%).

What about the “PASI ≥90% Improvement, subjects” value [6] of the same molecule?
Its value is 1 (20.0%).

And the “PASI 100% Improvement, subjects” value [7]?
Its value is 2 (40.0%).

And the “PASI ≥75% Improvement, subjects” value [7]?
The value was 3 (60.0%).

What about the “PASI ≥90% Improvement, subjects” value [7] of the same molecule?
The value was 3 (60.0%).

What about the “PASI 100% Improvement, subjects” value [8] of the same molecule?
The value was 2 (40.0%).

And the “PASI ≥75% Improvement, subjects” value [8]?
The value was 3 (60.0%).

And the “PASI ≥90% Improvement, subjects” value [8]?
Its value is 2 (40.0%).

And the “PASI 100% Improvement, subjects” value [9]?
Its value is 1 (20.0%).

And the “PASI ≥75% Improvement, subjects” value [9]?
The value was 3 (60.0%).

What about the “PASI ≥90% Improvement, subjects” value [9] of the same molecule?
Its value is 3 (60.0%).

What about the “Subjects achieving PASI 75” value (100 mg BID) of the same molecule?
Its value is 23.8%.

And the “Subjects achieving PASI 100” value (100 mg BID, Week 8)?
Its value is 11.9%.

What about the “PASI 75 treatment difference vs placebo” value (100 mg BID, Week 16) of the same molecule?
Its value is 69.4%.

And the “PASI 90 treatment difference vs placebo” value (100 mg BID, Week 16)?
The value was 57.3% (42.0%,.

What about the “PASI 100 treatment difference vs placebo” value (100 mg BID, Week 16) of the same molecule?
The value was 40.5% (25.8%,.

What about the “Subjects achieving PASI 90” value (100 mg BID, Week 16) of the same molecule?
Its value is “(59.5%)”.

What about the “PASI 75, %” value (100 mg BID, Week 16, N=42) of the same molecule?
The value was 78.6%.

And the “PASI 90, %” value (100 mg BID, Week 16, N=42)?
Its value is 59.5%.

What about the “PASI 100, %” value (100 mg BID, Week 16, N=42) of the same molecule?
Its value is 40.5%.

What about the “PASI 100% Improvement, % subjects” value [10] of the same molecule?
Its value is “(50.0%)”.

What about the “PASI 100% Improvement, n subjects” value [10] of the same molecule?
The value was 1.

And the “PASI ≥75% Improvement, n subjects” value [10]?
Its value is 2.

And the “PASI ≥90% Improvement, % subjects” value [10]?
Its value is “(100.0%)”.

What about the “PASI ≥90% Improvement, n subjects” value [10] of the same molecule?
The value was 2.

And the “PASI 100% Improvement, % subjects” value [11]?
The value was “(33.3%)”.

What about the “PASI 100% Improvement, n subjects” value [11] of the same molecule?
Its value is 1.

And the “PASI ≥75% Improvement, n subjects” value [11]?
Its value is 3.

And the “PASI ≥90% Improvement, % subjects” value [11]?
Its value is “(100.0%)”.

What about the “PASI ≥90% Improvement, n subjects” value [11] of the same molecule?
Its value is 3.

And the “PASI 100% Improvement, % subjects” value [12]?
Its value is “(50.0%)”.

What about the “PASI 100% Improvement, n subjects” value [12] of the same molecule?
Its value is 1.

What about the “PASI ≥75% Improvement, n subjects” value [12] of the same molecule?
Its value is 1.

And the “PASI ≥90% Improvement, % subjects” value [12]?
The value was “(50.0%)”.

And the “PASI ≥90% Improvement, n subjects” value [12]?
The value was 1.

And the “PASI 100% Improvement, % subjects” value [13]?
The value was “(66.7%)”.

What about the “PASI 100% Improvement, n subjects” value [13] of the same molecule?
The value was 2.

What about the “PASI ≥75% Improvement, n subjects” value [13] of the same molecule?
The value was 3.

And the “PASI ≥90% Improvement, % subjects” value [13]?
The value was “(66.7%)”.

What about the “PASI ≥90% Improvement, n subjects” value [13] of the same molecule?
The value was 2.

And the “PASI 100% Improvement, subjects” value [14]?
The value was 1 (25.0%).

What about the “PASI ≥75% Improvement, subjects” value [14] of the same molecule?
The value was 3 (75.0%).

What about the “PASI ≥90% Improvement, subjects” value [14] of the same molecule?
The value was 50.0%.

Reference: US20260232767A1, “INTERLEUKIN-23 RECEPTOR ANTAGONIST PEPTIDES FOR USE IN THE TREATMENT OF PSORIASIS” (Janssen Pharmaceutica NV, priority 2023, published 2026)
